Source: patent publication US6342508B1, “N-hydroxy-2-(Alkyl,Aryl or Heteroaryl sulfanyl, sulfinyl or sulfonyl) 3-substituted alkyl, aryl or heteroarylamides as matrix metalloproteinase inhibitors” (American Cyanamid Company, priority 1997, dated 2002)
Where a name gives a salt, the structure may show the parent alone.

Q: With CCCC(Cc1ccc(OCCN2CCCCCC2)cc1)(C(=O)NO)S(=O)(=O)c1ccc(OC)cc1 (stereo not drawn) [Example 19, 2-[4-(2-Azepan-1-yl-ethoxy)-benzyl]-2-(4-methoxy-benzenesulfonyl)-pentanoic acid hydroxyamide] as the compound, how does the melting point read?
A: 85 °C

Q: With COc1ccc(S(=O)(=O)C2(C(=O)NO)CCN(C)CC2)cc1 [Example 97, 1-Methyl-4-(4-methoxy-benzenesulfonyl)-piperidine-4-carboxylic acid hydroxyamide] as the compound, how does the melting point read?
A: 89 °C

Q: For CCCCOc1ccc(S(=O)(=O)C2(C(=O)NO)CCN(CCCOc3ccccc3)CC2)cc1 [Example 106, 4-(4-n-Butoxy-benzenesulfonyl)-1-(3-phenoxy-propyl)-piperidine-4-carboxylic acid hydroxyamide], which melting point is on record?
A: 84 °C

Q: For CCCCCC#CCC(Cc1cccnc1)(C(=O)NO)S(=O)(=O)c1ccc(OC)cc1 (stereo not drawn) (as salt: salt) [Example 74, 2-(4-Methoxy-benzenesulfonyl)-2-pyridin-3-ylmethyl-dec-4-ynoic acid hydroxyamide], which melting point is on record?
A: 65 °C

Q: For COc1ccc(S(=O)(=O)C2(C(=O)NO)CCCC2)cc1 [Example 54, 1-(4-Methoxy-benzenesulfonyl)-cyclopentanecarboxylic acid hydroxyamide], which melting point is on record?
A: 89 to 91 °C

Q: For COc1ccc(S(=O)(=O)C2(C(=O)NO)CCN(CCCOc3ccccc3)CC2)cc1 [Example 105, 4-(4-Methoxy-benzenesulfonyl)-1-(3-phenoxy-propyl)-piperidine-4-carboxylic acid hydroxyamide], which melting point is on record?
A: 101 °C

Q: For CCN1CCC(C(=O)NO)(S(=O)(=O)c2ccc(OC)cc2)CC1 [Example 95, 1-Ethyl-4-(4-methoxy-benzenesulfonyl)-piperidine-4-carboxylic acid hydroxyamide], which melting point is on record?
A: 85 °C

Q: With COc1ccc(S(=O)(=O)C(C)(CCCCN2C(=O)c3ccccc3C2=O)C(=O)NO)cc1 (stereo not drawn) [Example 31, 6-(1,3-Dioxo-1,3-dihydro-isoindol-2-yl)-2(4-methoxy-benzenesulfonyl)-2-methyl-hexanoic acid hydroxyamide] as the compound, how does the melting point read?
A: 146 to 148 °C

Q: With CCCCC(Cc1cccnc1)(C(=O)NO)S(=O)(=O)c1ccc(OC)cc1 (stereo not drawn) [Example 70, 2-(4-Methoxy-benzenesulfonyl)-2-pyridin-3-ylmethyl-hexanoic acid hydroxyamide] as the compound, how does the melting point read?
A: 70 °C

Q: Which melting point does the source give for CCCCCCCCC(Cc1cccnc1)(C(=O)NO)S(=O)(=O)c1ccc(OC)cc1 (stereo not drawn) [Example 62, 2-(4-Methoxy-benzenesulfonyl)-2-pyridin-3-ylmethyl-decanoic acid hydroxyamide] here?
A: 62 °C

Q: Which melting point does the source give for CC#CCC(CC#CC)(C(=O)NO)S(=O)(=O)c1ccc(F)cc1 [Example 78, 2-(4-Fluoro-benzenesulfonyl)-2-but-2-ynyl-hex-4-ynoic acid hydroxyamide] here?
A: 161 to 163 °C

Q: Which melting point does the source give for COc1ccc(S(=O)(=O)C(C)(Cc2ccc(-c3ccccc3)cc2)C(=O)NO)cc1 (stereo not drawn) [Example 14, 3-(Biphenyl-4-yl)-N-hydroxy-2-(4-methoxy-benzenesulfonyl)-2-methyl-propionamide] here?
A: 177 °C

Q: Which melting point does the source give for CC#CCC(Cc1cccnc1)(C(=O)NO)S(=O)(=O)c1ccc(F)cc1 (stereo not drawn) (as salt: salt) [Example 76, 2-(4-Fluoro-benzenesulfonyl)-2-pyridin-3-ylmethyl-hex-4-ynoic acid hydroxyamide] here?
A: 190 °C

Q: Which melting point does the source give for CCC(Cc1ccc(OCCN2CCCCC2)cc1)(C(=O)NO)S(=O)(=O)c1ccc(OC)cc1 (stereo not drawn) [Example 34, N-Hydroxy-2-(4-methoxy-benzenesulfonyl)-2-[4-(2-piperdin-1-yl-ethoxy)-benzyl]-butyramide] here?
A: 75 °C

Q: With COc1ccc(S(=O)(=O)C(CCCCOc2ccccc2)(Cc2cccnc2)C(=O)NO)cc1 (stereo not drawn) [Example 68, 2-(4-Methoxy-benzenesulfonyl)-6-phenoxy-2-pyridin-3-ylmethyl-hexanoic acid hydroxyamide] as the compound, how does the melting point read?
A: 68 °C

Q: For COc1ccc([S+]([O-])C(C(=O)NO)C(C)C)cc1 (stereo not drawn) [Example 7, N-Hydroxy-2-(4-methoxy-benzenesulfinyl)-3-methyl-butyramide], which melting point is on record?
A: 163 °C

Q: Which melting point does the source give for COc1ccc(S(=O)(=O)C(C)(CC2CCCCC2)C(=O)NO)cc1 (stereo not drawn) [Example 16, 3-Cyclohexyl-N-hydroxy-2-(4-methoxy-benzenesulfonyl)-2-methyl-propionamide] here?
A: 58 °C

Q: With COc1ccc(S(=O)(=O)C(Cc2ccccc2)C(=O)NO)cc1 (stereo not drawn) [Example 9, N-Hydroxy-2-(4-methoxy-benzenesulfonyl)-3-phenyl-propionamide] as the compound, how does the melting point read?
A: 180 °C

Q: With COc1ccc(S(=O)(=O)C(C)(Cc2ccc3ncccc3c2)C(=O)NO)cc1 (stereo not drawn) [Example 67, N-Hydroxy-2-(4-methoxy-benzensulfonyl)-2-methyl-3-quinolin-6-yl-propionamide] as the compound, how does the melting point read?
A: 206 °C

Q: With COc1ccc(S(=O)(=O)C(C)(Cc2ccc(OCCN3CCOCC3)cc2)C(=O)NO)cc1 (stereo not drawn) (as salt: hydrochloride) [Example 82, 2-(4-methoxy-benzenesulfonyl)-2-methyl-3-[4-(2-mopholinyl-ethoxy)-phenyl]-propionic hydroxyamide hydrochloride] as the compound, how does the melting point read?
A: 98 °C

Q: Which melting point does the source give for COc1ccc(S(=O)(=O)C2(C(=O)NO)CCN(CCOc3ccccc3)CC2)cc1 (as salt: HCl) [Example 107, 4-(4-methoxy-benzenesulfonyl)-1-(2-phenoxy-ethyl)-piperidine-4-carboxylic acid hydroxyamide] here?
A: 168 to 172 °C

Q: With COc1ccc(S(=O)(=O)C(C(=O)NO)C(C)C)cc1 (stereo not drawn) [Example 53, N-Hydroxy-2-(4methoxy-benzenesulfonyl)-3-methyl-butyramide] as the compound, how does the melting point read?
A: 220 °C

Q: With COc1ccc(S(=O)(=O)C(C)(Cc2ccc(OCCN(C(C)C)C(C)C)cc2)C(=O)NO)cc1 (stereo not drawn) (as salt: HCl) [Example 20, N-Hydroxy-2-(4-methoxy-benzenesulfonyl)-2-methyl-3-[4-(2-N,N-diisopropylamino-ethoxy)-phenyl]-propionamide] as the compound, how does the melting point read?
A: 98 °C

Q: Which melting point does the source give for COc1ccc(CCN2CCC(C(=O)NO)(S(=O)(=O)c3ccc(OC)cc3)CC2)cc1 (as salt: HCl) [Example 102, 4-(4-methoxy-benzenesulfonyl)-1-[2-(4-methoxyphenyl)-ethyl]-piperidine-4-carboxylic acid hydroxyamide] here?
A: 206 °C

Q: Which melting point does the source give for COc1ccc(S(=O)(=O)C(CCCc2ccccc2)(CCCc2ccccc2)C(=O)NO)cc1 [Example 57, 2-(4methoxy-benzenesulfonyl)-5phenyl-2-(3-phenyl-propyl)-pentanoic acid hydroxyamide] here?
A: 118 to 120 °C

Q: For CCCCOc1ccc(S(=O)(=O)C2(C(=O)NO)CCN(CCOc3ccccc3)CC2)cc1 (as salt: HCl) [Example 108, 4-(4-n-Butoxy-benzenesulfonyl)-1-(2-phenoxy-ethyl)-piperidine-4-carboxylic acid hydroxyamide], which melting point is on record?
A: 112 °C

Q: For C#CCC(Cc1cccnc1)(C(=O)NO)S(=O)(=O)c1ccc(OC)cc1 (stereo not drawn) [Example 75, 2-(4-Methoxy-benzenesulfonyl)-2-pyridin-3-ylmethyl-pent-4-ynoic acid hydroxyamide], which melting point is on record?
A: 119 to 121 °C

Q: With CCCCOc1ccc(S(=O)(=O)C2(C(=O)NO)CCN(Cc3ccccc3)CC2)cc1 [Example 98, 1-Benzyl-4-(4-butoxy-benzenesulfonyl)-piperidine-4-carboxylic acid hydroxyamide] as the compound, how does the melting point read?
A: 144 °C

Q: With COc1ccc(S(=O)(=O)C(CC=C(C)C)(CC=C(C)C)C(=O)NO)cc1 [Example 79, 2-(4-Methoxy-benzenesulfonyl)-5-methyl-2-(3-methyl-but-2-enyl)-hex-4-enoic acid hydroxyamide] as the compound, how does the melting point read?
A: 93 to 96 °C

Q: Which melting point does the source give for CCCCCCC(Sc1ccc(F)cc1)C(=O)NO (stereo not drawn) [Example 38, 2-(4-Fluoro-phenylsulfanyl)-octanoic acid hydroxyamide] here?
A: 58 °C

Q: With COc1ccc(CN2CCC(C(=O)NO)(S(=O)(=O)c3ccc(OC)cc3)CC2)cc1 (as salt: HCl) [Example 101, 4-(4-methoxy-benzenesulfonyl)-1-(4-methoxy-benzyl)-piperidine-4-carboxylic acid hydroxyamide] as the compound, how does the melting point read?
A: 175 °C

Q: For CCCCCC#CCC(CC#CCCCCC)(C(=O)NO)S(=O)(=O)c1ccc(OC)cc1 [Example 71, 2-(4-methoxy-benzenesulfonyl)-2-oct-2-ynyl-dec-4-ynoic acid hydroxyamide], which melting point is on record?
A: 83 to 84 °C

Q: Which melting point does the source give for COc1ccc(SC(C)(CC=C(C)C)C(=O)NO)cc1 (stereo not drawn) [Example 3, 2-(4-Methoxy-phenylsulfanyl)-2,5-dimethyl-hex-4-enoic acid hydroxyamide] here?
A: 89 °C

Q: Which melting point does the source give for CCCCCCC(Cc1ccc(OCCN2CCCCCC2)cc1)(C(=O)NO)S(=O)(=O)c1ccc(OC)cc1 (stereo not drawn) [Example 36, 2-[4-(2-Azepan-1-yl-ethoxy)-benzyl]-2-(4-Methoxy-benzenesulfonyl)-octanoic acid hydroxyamide] here?
A: 65 °C

Q: With COc1ccc(S(=O)(=O)C(C)(Cc2ccccc2Br)C(=O)NO)cc1 (stereo not drawn) [Example 55, 3-(2-Bromo-phenyl)-N-hydroxy-2-(4-methoxy-benzenesulfonyl)-2-methyl-propionamide] as the compound, how does the melting point read?
A: 93 to 96 °C

Q: For COc1ccc(S(=O)(=O)C(C)(Cc2ccc(OCCCN3CCN(c4cccc(Cl)c4)CC3)cc2)C(=O)NO)cc1 (stereo not drawn) (as salt: HCl) [Example 23, 3-(4-{3-[4-(3-Chloro-phenyl)-piperazin-1-yl]-propoxy}-phenyl)-N-hydroxy-2-(4-methoxy-benzenesulfonyl)-2-methyl-propionamide], which melting point is on record?
A: 122 °C

Q: For COc1ccc(S(=O)(=O)C(CC=C(C)C)(Cc2cccnc2)C(=O)NO)cc1 (stereo not drawn) [Example 63, 2-(4-Methoxy-benzenesulfonyl)-5-methyl-2-pyridin-3-ylmethyl-hex-4-enoic acid hydroxyamide], which melting point is on record?
A: 89 to 92 °C

Q: For COc1ccc(S(=O)(=O)C(Cc2ccc3ccccc3c2)C(=O)NO)cc1 (stereo not drawn) [Example 40, N-Hydroxy-2-(4-methoxy-benzenesulfonyl)-3-naphthalen-2-yl-propionamide], which melting point is on record?
A: 161 to 163 °C

Q: With COc1ccc(S(=O)(=O)C2(C(=O)NO)CCN(CCCc3ccccc3)CC2)cc1 [Example 91, 4-(4-methoxy-benzenesulfonyl)-1-(3-phenyl-propyl)-piperidine-4-carboxylic acid hydroxyamide] as the compound, how does the melting point read?
A: 143 °C
